Data reported in PubChem BioAssay AID256 (DTP/NCI, 2004).
Inconclusive results and toxic doses are left out. How the source made its calls: active means survival T/C of 150% or more; inactive means T/C below 125% in these data.

Test system: CD2F1 mice, L1210 leukemia ip, survival T/C
Experiment: NCI In Vivo Anticancer Drug Screen. Data for tumor model L1210 Leukemia (intraperitoneal) in CD2F1 (CDF1) mice
Settings: higher = longer survival
Method in brief: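 Tumor-bearing mice (transplanted tumor) were split into treated and vehicle control groups, and the measured endpoint of each treated group was divided by that of its vehicle controls.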

[1] = endpoint: mean survival time, dose: 100.0 mg/kg/injection, schedule: Q01DX001 (ip), vehicle: saline
[2] = endpoint: mean survival time, dose: 200.0 mg/kg/injection, schedule: Q01DX001 (ip), vehicle: saline
[3] = endpoint: mean survival time, dose: 400.0 mg/kg/injection, schedule: Q01DX001 (ip), vehicle: saline
[4] = endpoint: mean survival time, dose: 100.0 mg/kg/injection, schedule: Q04DX003 (ip), vehicle: saline with Tween-80
[5] = endpoint: mean survival time, dose: 200.0 mg/kg/injection, schedule: Q04DX003 (ip), vehicle: saline with Tween-80
[6] = endpoint: mean survival time, dose: 400.0 mg/kg/injection, schedule: Q04DX003 (ip), vehicle: saline with Tween-80
[7] = endpoint: mean survival time, dose: 100.0 mg/kg/injection, schedule: Q01DX001 (ip), vehicle: saline with Tween-80
[8] = endpoint: mean survival time, dose: 100.0 mg/kg/injection, schedule: Q01DX009 (ip), vehicle: saline with Tween-80
[9] = endpoint: mean survival time, dose: 200.0 mg/kg/injection, schedule: Q01DX009 (ip), vehicle: saline with Tween-80
[10] = endpoint: mean survival time, dose: 400.0 mg/kg/injection, schedule: Q01DX009 (ip), vehicle: saline with Tween-80
[11] = endpoint: mean survival time, dose: 50.0 mg/kg/injection, schedule: Q01DX009 (ip), vehicle: saline with Tween-80
[12] = endpoint: mean survival time, dose: 200.0 mg/kg/injection, schedule: Q01DX001 (ip), vehicle: saline with Tween-80
[13] = endpoint: mean survival time, dose: 400.0 mg/kg/injection, schedule: Q01DX001 (ip), vehicle: saline with Tween-80

Measured: T/C

Cc1ccc(N2CC(O)CSC2=Nc2ccccc2)cc1 (stereo unspecified)
inactive: endpoint: mean survival time, dose: 100.0 mg/kg/injection, schedule: Q01DX001 (ip), vehicle: Klucel (hydroxypropylcellulose) (HPC) 93 % of control | endpoint: mean survival time, dose: 200.0 mg/kg/injection, schedule: Q01DX001 (ip), vehicle: Klucel (hydroxypropylcellulose) (HPC) 91 % of control | endpoint: mean survival time, dose: 400.0 mg/kg/injection, schedule: Q01DX001 (ip), vehicle: Klucel (hydroxypropylcellulose) (HPC) 91 % of control

NC(N)=NCCN=C(N)N
inactive: [1] 105 % of control | [2] 94 % of control | [3] 100 % of control

Cc1n(Cc2ccc(Cl)cc2Cl)cc[n+]1Cc1ccccc1
inactive: endpoint: mean survival time, dose: 10.0 mg/kg/injection, schedule: Q04DX003 (ip), vehicle: Klucel (hydroxypropylcellulose) (HPC) 100 % of control | endpoint: mean survival time, dose: 20.0 mg/kg/injection, schedule: Q04DX003 (ip), vehicle: Klucel (hydroxypropylcellulose) (HPC) 105 % of control | endpoint: mean survival time, dose: 40.0 mg/kg/injection, schedule: Q04DX003 (ip), vehicle: Klucel (hydroxypropylcellulose) (HPC) 92 % of control

CCOC(=O)/C=C/c1ccc2c(c1)OCO2
inactive: [4] 97 % of control | [5] 94 % of control | [6] 103 % of control

C(=N\N=C\c1ccco1)/c1ccco1
inactive: endpoint: mean survival time, dose: 25.0 mg/kg/injection, schedule: Q01DX001 (ip), vehicle: saline with Tween-80 87 % of control | endpoint: mean survival time, dose: 50.0 mg/kg/injection, schedule: Q01DX001 (ip), vehicle: saline with Tween-80 97 % of control | [7] 100 % of control | [4] 97 % of control | [5] 101 % of control

O=C1c2ccccc2CCC1(Br)C(Br)c1ccccc1 (stereo unspecified)
inactive: endpoint: mean survival time, dose: 100.0 mg/kg/injection, schedule: Q01DX009 (ip), vehicle: Klucel (hydroxypropylcellulose) (HPC) 100 % of control | endpoint: mean survival time, dose: 200.0 mg/kg/injection, schedule: Q01DX009 (ip), vehicle: Klucel (hydroxypropylcellulose) (HPC) 100 % of control | endpoint: mean survival time, dose: 400.0 mg/kg/injection, schedule: Q01DX009 (ip), vehicle: Klucel (hydroxypropylcellulose) (HPC) 96 % of control

CCC(=O)C(c1ccccc1)(c1ccccc1)c1ccccc1
inactive: endpoint: mean survival time, dose: 25.0 mg/kg/injection, schedule: Q04DX002 (ip), vehicle: other 98 % of control | endpoint: mean survival time, dose: 50.0 mg/kg/injection, schedule: Q04DX002 (ip), vehicle: other 95 % of control | endpoint: mean survival time, dose: 100.0 mg/kg/injection, schedule: Q04DX002 (ip), vehicle: other 95 % of control

NS(N)(=O)=O
inactive: endpoint: mean survival time, dose: 100.0 mg/kg/injection, schedule: Q01DX009 (ip), vehicle: saline 105 % of control | endpoint: mean survival time, dose: 200.0 mg/kg/injection, schedule: Q01DX009 (ip), vehicle: saline 100 % of control | endpoint: mean survival time, dose: 400.0 mg/kg/injection, schedule: Q01DX009 (ip), vehicle: saline 97 % of control

O=c1ccn(Cc2cccc([N+](=O)[O-])c2)c(=O)[nH]1
inactive: [8] 106 % of control | [9] 104 % of control | [10] 102 % of control

CNc1nc(N)[nH]c(=O)c1N=O
inactive: endpoint: mean survival time, dose: 50.0 mg/kg/injection, schedule: Q04DX002 (ip), vehicle: saline with Tween-80 105 % of control | endpoint: mean survival time, dose: 100.0 mg/kg/injection, schedule: Q04DX002 (ip), vehicle: saline with Tween-80 102 % of control | endpoint: mean survival time, dose: 200.0 mg/kg/injection, schedule: Q04DX002 (ip), vehicle: saline with Tween-80 105 % of control

Cc1cc(OC(=O)Nc2cccc(Cl)c2Cl)ccc1Cl
inactive: endpoint: mean survival time, dose: 100.0 mg/kg/injection, schedule: Q01DX009 (ip), vehicle: other 101 % of control | endpoint: mean survival time, dose: 200.0 mg/kg/injection, schedule: Q01DX009 (ip), vehicle: other 103 % of control | endpoint: mean survival time, dose: 400.0 mg/kg/injection, schedule: Q01DX009 (ip), vehicle: other 106 % of control

COc1cc(C(C)=O)cc([N+](=O)[O-])c1O
inactive: [11] 102 % of control | [8] 91 % of control

O=C1OCC/C1=C/c1cccc(O)c1
inactive: endpoint: mean survival time, dose: 6.25 mg/kg/injection, schedule: Q04DX002 (ip), vehicle: Klucel (hydroxypropylcellulose) (HPC) 103 % of control | endpoint: mean survival time, dose: 25.0 mg/kg/injection, schedule: Q04DX002 (ip), vehicle: Klucel (hydroxypropylcellulose) (HPC) 107 % of control

CC1(C)CC(O)(Cc2ccccc2)C(=O)c2ccccc21 (stereo unspecified)
inactive: endpoint: mean survival time, dose: 25.0 mg/kg/injection, schedule: Q01DX009 (ip), vehicle: water 95 % of control | endpoint: mean survival time, dose: 50.0 mg/kg/injection, schedule: Q01DX009 (ip), vehicle: water 92 % of control | endpoint: mean survival time, dose: 100.0 mg/kg/injection, schedule: Q01DX009 (ip), vehicle: water 95 % of control | endpoint: mean survival time, dose: 200.0 mg/kg/injection, schedule: Q01DX009 (ip), vehicle: water 95 % of control | endpoint: mean survival time, dose: 400.0 mg/kg/injection, schedule: Q01DX009 (ip), vehicle: water 97 % of control

Cc1cc(C)c(Sc2c3ccccc3cc3ccccc23)c(C)c1
inactive: [1] 91 % of control | endpoint: mean survival time, dose: 100.0 mg/kg/injection, schedule: Q04DX003 (ip), vehicle: saline 93 % of control | [2] 101 % of control | endpoint: mean survival time, dose: 200.0 mg/kg/injection, schedule: Q04DX003 (ip), vehicle: saline 87 % of control | [3] 100 % of control | endpoint: mean survival time, dose: 400.0 mg/kg/injection, schedule: Q04DX003 (ip), vehicle: saline 95 % of control

CCCCOC(=O)/C=C\C(=O)OC(C)C(=O)OCCCC (stereo unspecified)
inactive: endpoint: median survival time, dose: 50.0 mg/kg/injection, schedule: Q04DX002 (ip), vehicle: saline with Tween-80 100 % of control | endpoint: median survival time, dose: 100.0 mg/kg/injection, schedule: Q04DX002 (ip), vehicle: saline with Tween-80 100 % of control | endpoint: median survival time, dose: 200.0 mg/kg/injection, schedule: Q04DX002 (ip), vehicle: saline with Tween-80 100 % of control | endpoint: median survival time, dose: 400.0 mg/kg/injection, schedule: Q04DX002 (ip), vehicle: saline with Tween-80 88 % of control

C=C1C(=O)O[C@@H]2C[C@@H](C)[C@@H]3[C@@H](OC4OC(COC(C)=O)C(O)C(O)C4O)CC(=O)[C@@]3(C)C[C@H]12 (stereo partly specified)
inactive: endpoint: mean survival time, dose: 35.0 mg/kg/injection, schedule: Q01DX009 (ip), vehicle: saline 108 % of control | endpoint: mean survival time, dose: 50.0 mg/kg/injection, schedule: Q01DX009 (ip), vehicle: saline 95 % of control | endpoint: mean survival time, dose: 75.0 mg/kg/injection, schedule: Q01DX009 (ip), vehicle: saline 102 % of control

O=C1c2cccc([N+](=O)[O-])c2C(=O)c2c1cccc2[N+](=O)[O-]
inactive: [7] 103 % of control | [12] 102 % of control | [13] 96 % of control

CN(C)c1ccc2c(NCCCCCCNc3ccnc4cc(N(C)C)ccc34)ccnc2c1
inactive: endpoint: median survival time, dose: 1.56 mg/kg/injection, schedule: Q01DX009 (ip), vehicle: distilled water + Tween-80 + alcohol 105 % of control | endpoint: median survival time, dose: 3.12 mg/kg/injection, schedule: Q01DX009 (ip), vehicle: distilled water + Tween-80 + alcohol 104 % of control | endpoint: median survival time, dose: 6.25 mg/kg/injection, schedule: Q01DX009 (ip), vehicle: distilled water + Tween-80 + alcohol 111 % of control

CC(=O)CC(=O)c1ccccc1.CC(=O)CC(=O)c1ccccc1.[Cl][Sn][Cl]
inactive: [7] 92 % of control | [12] 100 % of control | [13] 107 % of control

Cc1ccc(S(=O)(=O)Nc2ccccc2OCCOCCOc2ccccc2NS(=O)(=O)c2ccc(C)cc2)cc1
inactive: [7] 103 % of control | [12] 91 % of control | [13] 95 % of control

Cc1ccc(NC(=O)c2ccccc2Cl)cc1
inactive: [8] 95 % of control | [4] 95 % of control | [9] 92 % of control | [5] 96 % of control | [10] 94 % of control | [6] 93 % of control

CC1(C)C(O)C(C)(C)C1O (stereo unspecified)
inactive: endpoint: mean survival time, dose: 25.0 mg/kg/injection, schedule: Q01DX009 (ip), vehicle: saline with Tween-80 93 % of control | [11] 98 % of control | [4] 97 % of control

CCOC(=O)CC(c1ccccc1)C(C(=O)OCC)C(=O)OCC (stereo unspecified)
inactive: [8] 91 % of control | [9] 91 % of control | [10] 98 % of control
